This is an account of results in patent US7485651B2, “Compounds with activity on muscarinic receptors” (Acadia Pharmaceuticals, Inc., priority 1998, dated 2009).

This assay has as its target T1, m1 receptor (Homo sapiens, UniProt P11229).
T1 construct: expressed in transfected cells; host or cells: NIH 3T3 (ATCC CRL 1658)
T1 sequence (P11229 1-460): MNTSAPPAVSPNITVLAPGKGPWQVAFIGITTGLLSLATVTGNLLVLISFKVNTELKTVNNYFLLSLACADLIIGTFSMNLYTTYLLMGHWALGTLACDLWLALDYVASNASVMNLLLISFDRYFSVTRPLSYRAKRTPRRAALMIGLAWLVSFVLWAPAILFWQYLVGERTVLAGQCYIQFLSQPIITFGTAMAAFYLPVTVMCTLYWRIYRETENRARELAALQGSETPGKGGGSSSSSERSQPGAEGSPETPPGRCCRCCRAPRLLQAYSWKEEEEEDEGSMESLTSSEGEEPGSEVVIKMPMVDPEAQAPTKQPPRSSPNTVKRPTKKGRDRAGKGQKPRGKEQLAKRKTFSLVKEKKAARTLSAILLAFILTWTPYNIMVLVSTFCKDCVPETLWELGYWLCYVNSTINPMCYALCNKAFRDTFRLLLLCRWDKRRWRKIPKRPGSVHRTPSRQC
The assay can be described thus: R-SAT / NIH 3T3 cells transfected with m1 muscarinic receptor. Type of assay: cell-based. The procedure: Cell amplification is detected as increased levels of a marker also expressed by the cells.
The cells were treated with trypsin-EDTA, spun down and plated at 2×10^6 per 15 cm dish in 20 m1 of DMEM containing 10% calf serum.
On day one, the cells were transfected using the Superfect transfection reagent (available from Qiagen, Valencia, Calif.) in accordance with the manufacturer's instructions. Receptor DNA, β-gal DNA (pSI-β-galactosidase available from Promega, Madison, Wis.), chimeric Gq-i5 DNA for the m2 and m4 receptor subtype assays, and salmon sperm DNA (available from Sigma, St. Louis, […].) as filler to a total of 20 μg DNA was added per plate. Prior to addition to the plates, 60 μl Superfect was added to the DNA and mixed thoroughly by pipetting up and down several times. The mixture was incubated at room temperature for 10-15 minutes. The media were aspirated, and 12 ml fresh DMEM containing 10% calf serum and 50 units/m1 penicillin/streptomycin was added to the plates. The DNA-Superfect solution was mixed once more with a pipette and added to the plate which was swirled to distribute the DNA mixture evenly over the surface. The cells were incubated overnight at 37° C. and 5% CO2. After incubation, the media were aspirated and the plates were rinsed once with a 15 m1 volume of Hank's Buffered Saline. The plates were swirled to ensure thorough rinsing. 20 m1 fresh DMEM supplemented with 10% calf serum and 50 units/m1 penicillin/streptomycin was added to the plates. The cells were incubated for 24-48 hours until the plates were 100% confluent.
Assay of NIH 3T3 cells transfected with muscarinic receptor subtypes (general procedure) DMEM containing 2% Cyto-SF3 was heated at 37° C. in a water bath under sterile conditions. Sterile working stock solutions of test compounds to be assayed were prepared by diluting the compounds in DMEM to 8× the final concentration for testing. The compound (carbachol) to be included in the assay as a positive control was also diluted in DMEM to 8× the final concentration. 50 μL of the DMEM containing 2% Cyto-SF3 was added to each well of 96-well microtiter plates under sterile conditions. Then, 16 of compound solutions were added to the top wells of the plates, and dilution of the solutions was performed by taking 16 μl of the compound solutions from the top wells and pipetting them into the next row of wells. This procedure was repeated with each subsequent row of wells, except that 50 μl medium alone was added to the baseline control wells (the wells that contain medium and cells, but not test compounds) and plate control wells (wells containing medium, but not test compounds and cells). The plates were then placed in an incubator at 37° C. to equilibrate temperature and pH.
When the cell cultures had reached 100% confluence, the medium was aspirated and each plate was rinsed with 15 m1 Hank's Buffered Saline (HBS). The cells were left in the incubator for about 10-15 minutes until the HBS had turned slightly yellow. The HBS was then aspirated and 1 m1 trypsin was added to each plate and swirled so as to completely cover the plates. The edges of the plates were gently rapped several times to loosen the cells. After the cells had been dislodged from the surface, 8 m1 DMEM containing 10% calf serum and 50 units/m1 penicillin and 50 units/m1 streptomycin was added to inhibit the trypsin. The plates were rinsed with this medium, and the cells were pipetted into a tube. The cells were centrifuged at 1000 rpm for 5-10 min. in an IEC Centra CL2 centrifuge (produced by Sorvall). Afterwards, the medium was carefully aspirated so as not to dislodge the cells. The cell pellet was suspended in 1600 μl DMEM containing 10% calf serum and 50 units/m1 penicillin and 50 units/m1 streptomycin, after which 20 m1 DMEM supplemented with 2% Cyto-SF3 was added. 50 μl aliquots of this cell suspension was added to the wells of the 96-well microtiter plates prepared above (except for the plate control wells).

Turning to `CCCCC1CCN(CCCC(=O)c2ccccc2C)CC1` [Compound A, 4-n-Butyl-1-[4-(2-methylphenyl)-4-oxo-1-butyl]piperidine], for the setting “NIH3T3, m1, compound at 1.5 μM, maximum = response to 10 μM carbachol, read-out: Cellular response as a percentage of the maximum response of the cells”, the Emax at 1.5 µM was 107%. Besides, the “antagonism of carbachol-induced responses” value (m1) is “not an antagonist”. The “maximal response relative to reference compound carbachol” value (m1 receptor) is listed as “lower maximal response than the reference compound carbachol”. Moreover, for the setting “receptor transfected into separate cell cultures”, the “agonist activity at the m1 receptor” value is reported as “potent partial agonist”.
